The record followed here is ChEMBL document CHEMBL1125372, “Crystal-structure-based design and synthesis of benz[cd]indole-containing inhibitors of thymidylate synthase” (J Med Chem, 1992).

Broadly, the IC50 is the concentration that gives 50% inhibition. A low value points to greater potency.

One assay has as its system L1210. Description: Inhibition of cellular growth by the MTT colorimetric assay in L1210, murine leukemia cell line. Particulars: Mus musculus.
In the next assay the test system is GC3/MTK-. The assay can be described thus: Inhibition of cellular growth by the MTT colorimetric assay in GC3/M TK-, a human thymidine kinase deficient adenocarcinoma line. (Tetrazolium dyes change colour on reduction, which living cells bring about.)
The subject of another assay is CCRF-CEM. The assay can be described thus: Inhibition of cellular growth by the MTT colorimetric assay in CCRF-CEM, human lymphoblasticof T-cell origin.
Assay [1] is described as follows: Compound was evaluated for thymidylate shift expressed as the ratio of the IC50 in the presence of […] uM thymidylate divided by the IC50 with no thymidylate added.
The target in assay [2] is Thymidylate synthase (Escherichia coli) (UniProt C3SWJ7).
Thymidylate synthase (Escherichia coli), sequence (C3SWJ7 1-264): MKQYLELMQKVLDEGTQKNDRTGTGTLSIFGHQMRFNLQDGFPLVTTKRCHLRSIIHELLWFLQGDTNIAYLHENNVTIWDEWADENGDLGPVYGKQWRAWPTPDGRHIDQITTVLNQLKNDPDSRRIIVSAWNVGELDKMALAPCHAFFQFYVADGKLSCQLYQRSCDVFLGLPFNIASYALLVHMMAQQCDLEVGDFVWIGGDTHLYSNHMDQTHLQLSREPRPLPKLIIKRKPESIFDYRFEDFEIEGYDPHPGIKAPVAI
Description: Inhibitory activity against thymidylate synthase from Escherichia coli
The target is the same in assay [3]. The source holds these as a separate data set.
Description: Compound was evaluated for its inhibitory activity against thymidylate synthase from Escherichia coli
The target of assay [4] is Thymidylate synthase (Homo sapiens) (UniProt P04818).
Thymidylate synthase (Homo sapiens), sequence (P04818 2-313 limits assumed): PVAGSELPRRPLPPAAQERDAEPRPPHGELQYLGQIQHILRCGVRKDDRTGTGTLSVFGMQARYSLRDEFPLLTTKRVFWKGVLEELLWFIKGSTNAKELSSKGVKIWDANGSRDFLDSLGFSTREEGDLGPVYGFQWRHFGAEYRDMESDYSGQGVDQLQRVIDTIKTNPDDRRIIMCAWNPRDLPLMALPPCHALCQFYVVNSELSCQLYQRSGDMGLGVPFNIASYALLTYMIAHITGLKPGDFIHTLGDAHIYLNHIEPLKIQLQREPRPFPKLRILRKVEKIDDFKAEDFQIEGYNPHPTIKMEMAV
Description: (§1) Inhibitory activity against thymidylate synthase from human
The target is the same in assay [5]. This is another data set of the same source.
Description: as §1

Regarding `Cc1ccc2c3c(ccc(N(C)Cc4ccc(S(=O)(=O)c5ccccc5)cc4)c13)NC2=O`, the IC50 in the assay with L1210 was 1900 nM; with GC3/MTK-, more than 5 µM; with CCRF-CEM it was 4800 nM.

As to `CN(Cc1ccc(S(=O)(=O)c2ccccc2)cc1)c1ccc2c3c(cccc13)C(NO)=N2`, the IC50 in the assay on L1210 is 810 nM; with GC3/MTK-, more than 5 µM; in the assay on CCRF-CEM, 2000 nM.

Consider `CNC1=Nc2ccc(N(C)Cc3ccc(S(=O)(=O)c4ccccc4)cc3)c3cccc1c23`, for which the IC50 in the assay with L1210 came to 1600 nM; in the assay on GC3/MTK-, 3.4 µM; in the assay with CCRF-CEM, 3300 nM.

In the case of `COc1ccc(S(=O)(=O)c2ccc(CN(C)c3ccc4c5c(cccc35)C(N)=N4)cc2)cc1`, the figures for the IC50 in the assay with L1210, in the assay on GC3/MTK- and with CCRF-CEM were 1200 nM, 2.1 µM and 2100 nM, respectively.

Take `Cc1ccc2c3c(ccc(N(C)Cc4ccc(S(=O)(=O)c5ccc(N)cc5)cc4)c13)N=C2N`: the IC50 in the assay on L1210 was 280 nM; in the assay with GC3/MTK-, 0.27 µM; in the assay with CCRF-CEM, 200 nM.

In the case of `CN(Cc1ccc(S(=O)(=O)N2CCOCC2)cc1)c1ccc2c3c(ccc(Cl)c13)C(N)=N2`, the figures for the half-inhibitory concentration (IC50) with L1210, with GC3/MTK- and with CCRF-CEM were 440 nM, 1.4 µM and 900 nM, respectively.

In the case of `CN(Cc1ccc(S(=O)(=O)N2CCOCC2)cc1)c1ccc2c3c(cccc13)C(=O)N2`, the IC50 in the assay on L1210 is more than 5000 nM; with GC3/MTK-, more than 5 µM; in the assay on CCRF-CEM, more than 5000 nM.

Consider `CSC1Nc2ccc(N(C)Cc3ccc(S(=O)(=O)c4ccc(O)cc4)cc3)c3cccc1c23` (stereo unspecified), for which the IC50 in the assay with L1210 was more than 4000 nM; in the assay on GC3/MTK-, more than 4 µM; in the assay with CCRF-CEM it was more than 4000 nM.

As to `Cc1ccc2c3c(ccc(N(C)Cc4ccc(S(=O)(=O)c5ccc(N)cc5)cc4)c13)NC2=O`, the IC50 is 3300 nM with L1210, more than 5 µM in the assay on GC3/MTK- and 5000 nM in the assay with CCRF-CEM.

`O=C1Nc2ccc(NCc3ccc(S(=O)(=O)c4ccccc4)cc3)c3cccc1c23`: the IC50 was 2300 nM in the assay on L1210, more than 4 µM in the assay on GC3/MTK- and more than 4000 nM in the assay on CCRF-CEM.

For the compound `CN(Cc1ccc(S(=O)(=O)c2ccc(O)cc2)cc1)c1ccc2c3c(cccc13)C(N)=N2`, the results for the IC50 with L1210, with GC3/MTK- and in the assay with CCRF-CEM were 2100 nM, 4.05 µM and 2700 nM, respectively.

As to `O=C1Nc2ccc(N(CCCO)Cc3ccc(S(=O)(=O)N4CCNCC4)cc3)c3cccc1c23`, the IC50 with L1210 worked out at 21500 nM; in the assay on GC3/MTK- it was 30 µM; with CCRF-CEM, 15000 nM.

`Cc1ccc2c3c(ccc(N(C)Cc4ccc(S(=O)(=O)N5CCOCC5)cc4)c13)N=C2N`: the results for the IC50 in the assay on L1210, with GC3/MTK- and in the assay with CCRF-CEM were 220 nM, 0.44 µM and 220 nM, respectively.

Take `CSCN(Cc1ccc(S(=O)(=O)c2ccccc2)cc1)c1ccc2c3c(cccc13)C(=O)N2`: the IC50 is 2100 nM in the assay with L1210, more than 10 µM with GC3/MTK- and 2800 nM in the assay on CCRF-CEM.

For `CSc1ccc2c3c(ccc(N(C)Cc4ccc(S(=O)(=O)N5CCOCC5)cc4)c13)N=C2N`, the IC50 in the assay with L1210 was 1900 nM; in the assay with GC3/MTK-, 6.9 µM; with CCRF-CEM it was 3100 nM.

`COc1ccc(S(=O)(=O)c2ccc(CN(C)c3ccc4c5c(cccc35)C(=O)N4)cc2)cc1`: the IC50 in the assay with L1210 came out at 4600 nM; in the assay on GC3/MTK-, 10 µM; with CCRF-CEM, 3000 nM.

`COc1ccc(S(=O)(=O)c2ccc(CN(C)c3ccc4c5c(ccc(C)c35)C(NO)=N4)cc2)cc1`: the results for the IC50 in the assay with L1210, in the assay on GC3/MTK- and in the assay with CCRF-CEM were 4100 nM, more than 10 µM and 5000 nM, respectively.

With `CCN(Cc1ccc(S(=O)(=O)c2ccccc2)cc1)c1ccc2c3c(cccc13)C(=O)N2`, the IC50 was 3050 nM in the assay with L1210, 3.33 µM with GC3/MTK- and more than 3330 nM in the assay with CCRF-CEM.

For `Cc1ccc2c3c(ccc(N(C)Cc4ccc(S(=O)(=O)c5ccc([N+](=O)[O-])cc5)cc4)c13)NC2=O`, the IC50 with L1210 was 890 nM; in the assay with GC3/MTK- it was more than 5 µM; in the assay with CCRF-CEM, 2400 nM.

For the compound `Cc1ccc2c3c(ccc(N(C)Cc4ccc(S(=O)(=O)c5ccccc5)cc4)c13)N=C2N`, the values for the IC50 in the assay on L1210, in the assay on GC3/MTK- and in the assay with CCRF-CEM were 250 nM, 0.52 µM and 360 nM, respectively. Besides, in assay [1], the Thymidylate shift was 3.85.

As to `CNC1=Nc2ccc(N(C)Cc3ccc(S(=O)(=O)N4CCOCC4)cc3)c3c(C)ccc1c23`, the IC50 in the assay with L1210 was found to be 180 nM; in the assay with GC3/MTK-, 0.21 µM; with CCRF-CEM, 610 nM. This compound gave a Kii in assay [2] of 0.088 µM. In assay [3], this compound had a Kis of 0.055 µM.

Take `CN(Cc1ccc(S(=O)(=O)N2CCOCC2)cc1)c1ccc2c3c(cccc13)C(=N)N2`: the Kii in assay [4] was determined as 0.015 µM; in assay [2], 5.4 µM. The IC50 was determined as 490 nM with L1210, 0.9 µM with GC3/MTK- and 460 nM in the assay with CCRF-CEM. Besides, the Kis in assay [5] was found to be 0.012 µM; in assay [3], 1.8 µM.

Regarding `CC(=O)c1cccc2c(N(C)Cc3ccc(S(=O)(=O)c4ccc(N)cc4)cc3)ccc(N)c12`, the IC50 in the assay on L1210 is 9100 nM; in the assay on GC3/MTK-, more than 10 µM; in the assay with CCRF-CEM, 5900 nM.

Turning to `O=C1Nc2ccc(N(CCO)Cc3ccc(S(=O)(=O)N4CCNCC4)cc3)c3cccc1c23`, the IC50 in the assay with L1210 was 50000 nM; in the assay with GC3/MTK- it was more than 50 µM; with CCRF-CEM it was 31000 nM.

For `CCN(Cc1ccc(S(=O)(=O)c2ccccc2)cc1)c1ccc2c3c(cccc13)C(N)=N2`, the values for the IC50 in the assay on L1210, with GC3/MTK- and in the assay on CCRF-CEM were 700 nM, 3 µM and 1250 nM, respectively.

Consider `CNC1=Nc2ccc(N(C)Cc3ccc(S(=O)(=O)c4ccc(OC)cc4)cc3)c3c(C)ccc1c23`, for which the figures for the IC50 in the assay on L1210, with GC3/MTK- and in the assay with CCRF-CEM were 720 nM, 1.5 µM and 890 nM, respectively.

As to `CN(Cc1ccc(S(=O)(=O)c2ccccc2)cc1)c1ccc2c3c(cccc13)C(NN)=N2`, the figures for the IC50 in the assay on L1210, in the assay with GC3/MTK- and with CCRF-CEM were 2400 nM, more than 10 µM and 1300 nM, respectively.

For the compound `CN(Cc1ccc(S(=O)(=O)N2CCOCC2)cc1)c1ccc2c3c(ccc(Cl)c13)C(=O)N2`, the results for the IC50 in the assay with L1210, in the assay with GC3/MTK- and with CCRF-CEM were more than 5000 nM, more than 5 µM and more than 5000 nM, respectively.

On to `Cc1ccc2c3c(ccc(N(C)Cc4ccc(S(=O)(=O)N5CCOCC5)cc4)c13)NC2=O`, for which the IC50 in the assay with L1210 was 2600 nM; in the assay with GC3/MTK-, more than 5 µM; in the assay with CCRF-CEM, 3900 nM.

Regarding `CN(Cc1ccc(S(=O)(=O)c2ccc([N+](=O)[O-])cc2)cc1)c1ccc2c3c(cccc13)C(=O)N2`, the IC50 in the assay with L1210 is 2000 nM; with GC3/MTK-, more than 5 µM; in the assay with CCRF-CEM it was 2800 nM.

`CNC1=Nc2ccc(N(C)Cc3ccc(S(=O)(=O)N4CCOCC4)cc3)c3cccc1c23`: the IC50 in the assay with L1210 was 1800 nM; with GC3/MTK- it was more than 5 µM; in the assay on CCRF-CEM, more than 5000 nM.

`COc1ccc(S(=O)(=O)c2ccc(CN(C)c3ccc4c5c(ccc(C)c35)C(=O)N4)cc2)cc1`: the IC50 in the assay with L1210 is 2000 nM; in the assay on GC3/MTK-, more than 5 µM; in the assay on CCRF-CEM, 4000 nM.

Regarding `CN(Cc1ccc(S(=O)(=O)c2ccc(O)cc2)cc1)c1ccc2c3c(cccc13)C(=O)N2`, the figures for the IC50 in the assay with L1210, in the assay with GC3/MTK- and with CCRF-CEM were 10000 nM, 9.5 µM and 9500 nM, respectively.

As for `COc1ccc(S(=O)(=O)c2ccc(CN(C)c3ccc4c5c(ccc(C)c35)C(N)=N4)cc2)cc1`, the values for the IC50 with L1210, in the assay with GC3/MTK- and with CCRF-CEM were 310 nM, 0.97 µM and 400 nM, respectively.

In the case of `Cc1ccc2c3c(ccc(N(C)Cc4ccc(S(=O)(=O)c5ccc([N+](=O)[O-])cc5)cc4)c13)N=C2N`, the IC50 in the assay with L1210 worked out at 570 nM; with GC3/MTK-, 0.91 µM; with CCRF-CEM it was 690 nM.

Regarding `Cc1ccc2c3c(ccc(NCc4ccc(S(=O)(=O)c5ccccc5)cc4)c13)NC2=O`, the results for the IC50 in the assay on L1210, in the assay with GC3/MTK- and in the assay with CCRF-CEM were 2000 nM, more than 5 µM and 2500 nM, respectively.

On to `CCCN(Cc1ccc(S(=O)(=O)N2CCNCC2)cc1)c1ccc2c3c(cccc13)C(=O)N2`, for which the half-inhibitory concentration (IC50) in the assay on L1210 is 2900 nM; in the assay on GC3/MTK-, 5.4 µM; in the assay with CCRF-CEM, 3100 nM.

Regarding `CC(C)N(Cc1ccc(S(=O)(=O)N2CCNCC2)cc1)c1ccc2c3c(cccc13)C(=O)N2`, the IC50 is 3900 nM in the assay on L1210, 5.9 µM in the assay with GC3/MTK- and 6800 nM in the assay with CCRF-CEM.
